In PubChem BioAssay AID328 (DTP/NCI, 2004):
Several values for one entry are separate records, joined by “and”; a condition that tells them apart may be missing. Equal values may be shown once. Inconclusive results and toxic doses are left out.

Test system: BDF1 mice, P388 leukemia ip, median survival T/C
Test: NCI In Vivo Anticancer Drug Screen. Data for tumor model P388 Leukemia (intraperitoneal) in B6D2F1 (BDF1) mice
Conditions: endpoint: median survival time, higher = longer survival
Summary of the method: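 Antitumour effect was judged in vivo: survival in drug-treated mice, normalised to that of vehicle-dosed controls, gives the reported T/C.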

[1] = dose: 100.0 mg/kg/injection, schedule: Q04DX003 (ip), vehicle: saline with Tween-80
[2] = dose: 200.0 mg/kg/injection, schedule: Q04DX003 (ip), vehicle: saline with Tween-80
[3] = dose: 400.0 mg/kg/injection, schedule: Q04DX003 (ip), vehicle: saline with Tween-80
[4] = dose: 50.0 mg/kg/injection, schedule: Q01DX009 (ip), vehicle: saline with Tween-80
[5] = dose: 100.0 mg/kg/injection, schedule: Q01DX009 (ip), vehicle: saline with Tween-80
[6] = dose: 200.0 mg/kg/injection, schedule: Q01DX009 (ip), vehicle: saline with Tween-80
[7] = dose: 12.5 mg/kg/injection, schedule: Q01DX009 (ip), vehicle: saline
[8] = dose: 25.0 mg/kg/injection, schedule: Q01DX009 (ip), vehicle: saline
[9] = dose: 50.0 mg/kg/injection, schedule: Q01DX005 (ip), vehicle: saline with Tween-80
[10] = dose: 100.0 mg/kg/injection, schedule: Q01DX005 (ip), vehicle: saline with Tween-80
[11] = dose: 200.0 mg/kg/injection, schedule: Q01DX005 (ip), vehicle: saline with Tween-80
[12] = dose: 25.0 mg/kg/injection, schedule: Q01DX009 (ip), vehicle: saline with Tween-80

## CC1(C)C=C(C(Br)c2ccc(Cl)cc2)C(=O)c2ccccc21 (stereo not given)
dose: 50.0 mg/kg/injection, schedule: Q01DX009 (ip), vehicle: Klucel (hydroxypropylcellulose) (HPC)
  T/C: 100 % of control
dose: 50.0 mg/kg/injection, schedule: Q04DX003 (ip), vehicle: Klucel (hydroxypropylcellulose) (HPC)
  T/C: 100 % of control
dose: 100.0 mg/kg/injection, schedule: Q01DX009 (ip), vehicle: Klucel (hydroxypropylcellulose) (HPC)
  T/C: 100 % of control and 105 % of control
dose: 100.0 mg/kg/injection, schedule: Q01DX009 (ip), vehicle: saline
  T/C: 160 % of control
dose: 100.0 mg/kg/injection, schedule: Q04DX003 (ip), vehicle: Klucel (hydroxypropylcellulose) (HPC)
  T/C: 90 % of control
dose: 200.0 mg/kg/injection, schedule: Q04DX003 (ip), vehicle: Klucel (hydroxypropylcellulose) (HPC)
  T/C: 100 % of control
dose: 400.0 mg/kg/injection, schedule: Q01DX009 (ip), vehicle: Klucel (hydroxypropylcellulose) (HPC)
  T/C: 95 % of control

## COc1ccc(C(=O)c2cccs2)cc1
[1]
  T/C: 100 % of control
[2]
  T/C: 100 % of control
[3]
  T/C: 86 % of control

## CNC(=O)c1ccccc1Sc1ccccc1
[4]
  T/C: 104 % of control
[5]
  T/C: 98 % of control
[6]
  T/C: 106 % of control

## CC(C)(C)OC(=O)NN=C1CCC(C(C)(C)C)CC1 (stereo not given)
dose: 83.75 mg/kg/injection, schedule: Q01DX001 (ip), vehicle: Klucel (hydroxypropylcellulose) (HPC)
  T/C: 95 % of control
[5]
  T/C: 109 % of control
dose: 150.0 mg/kg/injection, schedule: Q04DX003 (ip), vehicle: Klucel (hydroxypropylcellulose) (HPC)
  T/C: 100 % of control
dose: 167.5 mg/kg/injection, schedule: Q01DX001 (ip), vehicle: Klucel (hydroxypropylcellulose) (HPC)
  T/C: 100 % of control
dose: 225.0 mg/kg/injection, schedule: Q04DX003 (ip), vehicle: Klucel (hydroxypropylcellulose) (HPC)
  T/C: 100 % of control
dose: 335.0 mg/kg/injection, schedule: Q01DX001 (ip), vehicle: Klucel (hydroxypropylcellulose) (HPC)
  T/C: 95 % of control
dose: 335.0 mg/kg/injection, schedule: Q04DX003 (ip), vehicle: Klucel (hydroxypropylcellulose) (HPC)
  T/C: 90 % of control

## CCOC(=O)c1c(C)cc(C)nc1[S][Sn]([Cl])([Cl])[S]c1nc(C)cc(C)c1C(=O)OCC
[4]
  T/C: 99 % of control
[5]
  T/C: 107 % of control
[6]
  T/C: 106 % of control

## CC1c2ccccc2N(S(=O)(=O)c2ccccc2)C1C (stereo not given)
dose: 100.0 mg/kg/injection, schedule: Q01DX009 (ip), vehicle: gum acacia
  T/C: 107 % of control
dose: 200.0 mg/kg/injection, schedule: Q01DX009 (ip), vehicle: gum acacia
  T/C: 92 % of control
dose: 400.0 mg/kg/injection, schedule: Q01DX009 (ip), vehicle: gum acacia
  T/C: 100 % of control

## CC(CNCCN)C[Si](C)(C)C (stereo not given)
[7]
  T/C: 95 % of control
dose: 12.5 mg/kg/injection, schedule: Q04DX003 (ip), vehicle: saline
  T/C: 88 % of control
[8]
  T/C: 100 % of control
dose: 25.0 mg/kg/injection, schedule: Q04DX003 (ip), vehicle: saline
  T/C: 100 % of control
dose: 50.0 mg/kg/injection, schedule: Q01DX009 (ip), vehicle: saline
  T/C: 90 % of control
dose: 50.0 mg/kg/injection, schedule: Q04DX003 (ip), vehicle: saline
  T/C: 94 % of control

## CC1(C)OC2(C)CCC1C(O)C2N1CCOCC1 (stereo not given)
[9]
  T/C: 106 % of control
[10]
  T/C: 106 % of control
[11]
  T/C: 101 % of control

## O=S1(=O)CC(S(=O)(=O)c2ccccc2)C1
dose: 100.0 mg/kg/injection, schedule: Q01DX001 (ip), vehicle: saline with Tween-80
  T/C: 99 % of control
dose: 200.0 mg/kg/injection, schedule: Q01DX001 (ip), vehicle: saline with Tween-80
  T/C: 103 % of control
dose: 400.0 mg/kg/injection, schedule: Q01DX001 (ip), vehicle: saline with Tween-80
  T/C: 100 % of control

## O=C(O)c1cc(Br)cc(SSc2cc(Br)cc(C(=O)O)c2O)c1O
[12]
  T/C: 103 % of control
[4]
  T/C: 94 % of control
[5]
  T/C: 106 % of control

## NC(=S)N/N=C/c1ccccc1N
dose: 100.0 mg/kg/injection, schedule: Q01DX001 (ip), vehicle: Klucel (hydroxypropylcellulose) (HPC)
  T/C: 104 % of control
dose: 200.0 mg/kg/injection, schedule: Q01DX001 (ip), vehicle: Klucel (hydroxypropylcellulose) (HPC)
  T/C: 104 % of control
dose: 400.0 mg/kg/injection, schedule: Q01DX001 (ip), vehicle: Klucel (hydroxypropylcellulose) (HPC)
  T/C: 108 % of control

## CN(C)c1ccc(/C=C/c2cccc(/C=C/c3ccc(N(C)C)cc3)[n+]2[O-])cc1
[9]
  T/C: 91 % of control
[10]
  T/C: 89 % of control
[11]
  T/C: 93 % of control

## O=[N+]([O-])c1cc[n+]([O-])c(Br)c1
[4]
  T/C: 90 % of control
[1]
  T/C: 100 % of control
[6]
  T/C: 87 % of control
[2]
  T/C: 90 % of control

## COC(=O)C1=C(\N2CCOCC2)CCCCC/C=C\1C(=O)OC
[4]
  T/C: 100 % of control
[6]
  T/C: 100 % of control

## COC(=O)Nc1nc2ccc(C(=O)c3ccccc3)cc2[nH]1
dose: 10.0 mg/kg/injection, schedule: Q04DX003 (ip), vehicle: other
  T/C: 106 % of control
dose: 30.0 mg/kg/injection, schedule: Q04DX003 (ip), vehicle: saline with Tween-80
  T/C: 173 % of control
dose: 35.0 mg/kg/injection, schedule: Q04DX003 (ip), vehicle: saline with Tween-80
  T/C: 178 % of control

## [NH-]C(CO)C(=O)O.[NH-]C(CO)C(=O)O.[Pd+2] (stereo not given)
dose: 12.5 mg/kg/injection, schedule: Q01DX009 (ip), vehicle: water
  T/C: 106 % of control

## Cc1cc(Cl)c2ccccc2c1N
dose: 44.0 mg/kg/injection, schedule: Q01DX009 (ip), vehicle: other
  T/C: 100 % of control
dose: 66.0 mg/kg/injection, schedule: Q01DX009 (ip), vehicle: other
  T/C: 110 % of control
dose: 100.0 mg/kg/injection, schedule: Q01DX009 (ip), vehicle: other
  T/C: 115 % of control
dose: 150.0 mg/kg/injection, schedule: Q01DX009 (ip), vehicle: other
  T/C: 110 % of control

## Cc1cc(C(C(N)=O)c2ccccc2)ccc1N(CCCl)CCCl (stereo not given)
dose: 0.22 mg/kg/injection, schedule: Q01DX009 (ip), vehicle: Klucel (hydroxypropylcellulose) (HPC)
  T/C: 112 % of control
dose: 0.33 mg/kg/injection, schedule: Q01DX009 (ip), vehicle: Klucel (hydroxypropylcellulose) (HPC)
  T/C: 108 % of control
dose: 0.77 mg/kg/injection, schedule: Q01DX009 (ip), vehicle: Klucel (hydroxypropylcellulose) (HPC)
  T/C: 155 % of control
dose: 2.34 mg/kg/injection, schedule: Q01DX009 (ip), vehicle: Klucel (hydroxypropylcellulose) (HPC)
  T/C: 154 % of control
dose: 4.68 mg/kg/injection, schedule: Q01DX009 (ip), vehicle: Klucel (hydroxypropylcellulose) (HPC)
  T/C: 186 % of control
dose: 6.0 mg/kg/injection, schedule: Q04DX003 (ip), vehicle: saline
  T/C: 118 % of control
dose: 12.37 mg/kg/injection, schedule: Q01DX009 (ip), vehicle: Klucel (hydroxypropylcellulose) (HPC)
  T/C: 96 % of control and 205 % of control
dose: 13.75 mg/kg/injection, schedule: Q04DX003 (ip), vehicle: Klucel (hydroxypropylcellulose) (HPC)
  T/C: 178 % of control
dose: 18.75 mg/kg/injection, schedule: Q01DX009 (ip), vehicle: Klucel (hydroxypropylcellulose) (HPC)
  T/C: 103 % of control
dose: 27.5 mg/kg/injection, schedule: Q04DX003 (ip), vehicle: Klucel (hydroxypropylcellulose) (HPC)
  T/C: 213 % of control
dose: 28.12 mg/kg/injection, schedule: Q01DX009 (ip), vehicle: Klucel (hydroxypropylcellulose) (HPC)
  T/C: 110 % of control
dose: 35.0 mg/kg/injection, schedule: Q04DX003 (ip), vehicle: Klucel (hydroxypropylcellulose) (HPC)
  T/C: 218 % of control
dose: 55.0 mg/kg/injection, schedule: Q04DX003 (ip), vehicle: Klucel (hydroxypropylcellulose) (HPC)
  T/C: 272 % of control and 221 % of control
dose: 80.0 mg/kg/injection, schedule: Q04DX003 (ip), vehicle: Klucel (hydroxypropylcellulose) (HPC)
  T/C: 272 % of control

## c1ccc(-c2nc3ncccn3n2)cc1
[12]
  T/C: 97 % of control
[4]
  T/C: 106 % of control and 111 % of control
[5]
  T/C: 104 % of control and 120 % of control
[6]
  T/C: 104 % of control and 112 % of control

## NC(=S)N/N=C\c1nnc(N)s1
[4]
  T/C: 90 % of control

## Clc1nc2ccccc2n2nnnc12
dose: 5.0 mg/kg/injection, schedule: Q01DX009 (ip), vehicle: saline with Tween-80
  T/C: 105 % of control
dose: 10.0 mg/kg/injection, schedule: Q01DX009 (ip), vehicle: saline with Tween-80
  T/C: 105 % of control
[7]
  T/C: 94 % of control
dose: 20.0 mg/kg/injection, schedule: Q01DX009 (ip), vehicle: saline with Tween-80
  T/C: 107 % of control
[8]
  T/C: 97 % of control

## Nc1nc(N)c2nc(SC34CC5CC(CC(C5)C3)C4)c(N)nc2n1
[1]
  T/C: 97 % of control
[2]
  T/C: 88 % of control
[3]
  T/C: 94 % of control

## COC(=O)c1ccc(OP(=O)(N(C)C)N(C)C)cc1
dose: 12.5 mg/kg/injection, schedule: Q01DX009 (ip), vehicle: saline with Tween-80
  T/C: 117 % of control
[12]
  T/C: 115 % of control
